Here are results for 67 molecules from paper PMC7539012, “Hyperphosphorylated tau aggregation and cytotoxicity modulators screen identified prescription drugs linked to Alzheimer's disease and cognitive functions” (Scientific Reports, 2020).

Structures are written as SMILES. Where a name gives a salt, the structure may show the parent alone.

The test system of the first experiment is T1, 1N4R p-tau.
T1 construct: made in house; host or cells: E. coli (PIMAX system)
In words: p-tau aggregation modulator screen of 1280-compound library (ThS fluorescence net change over 16 h).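 For ThS net change: 30 µM compound with 6 µM p-tau over 16 h.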 In kind it is biochemical. Also on record: key to PTAI>2SD: *: PTAI>2SD.
Conditions: not given
`CCN(CC)C(=O)[C@]1(c2ccccc2)C[C@@H]1CN.Cl` [Milnacipran hydrochloride] had a ThS net change of 415.

Regarding `O=C1c2c(O)ccc(O)c2C(=O)c2c(NCCNCCO)ccc(NCCNCCO)c21` [Mitoxantrone dihydrochloride], the ThS net change was 328.

For `NC(=O)C[S+]([O-])C(c1ccccc1)c1ccccc1` (centres unmarked) [Modafinil], the ThS net change amounted to 413.

`C[C@]12CC[C@H]3[C@@H](CCC4=CC(=O)CC[C@@H]43)[C@@H]1CC[C@@H]2O` [Nandrolone] showed a ThS net change of 479.

Still in this experiment, the particulars now being: 1280-compound library screen; ThS fluorescence net change over 16 h.
Consider `CC#C[C@]1(O)CC[C@H]2[C@@H]3CCC4=CC(=O)CCC4=C3[C@@H](c3ccc(N(C)C)cc3)C[C@@]21C` [Mifepristone], for which the ThS net change was determined as 382.

Consider `CN(c1nccc(=O)[nH]1)C1CCN(c2nc3ccccc3n2Cc2ccc(F)cc2)CC1` [Mizolastine], for which the ThS net change worked out at 390.

For the molecule `O=C(NCCN1CCOCC1)c1ccc(Cl)cc1` [Moclobemide], the ThS net change is 393.

In turn, `Oc1ccc(OCc2ccccc2)cc1` [Monobenzone] gave a ThS net change of 382.

Consider `Cl.N=C(N)NC(=N)N1CCOCC1` [Moroxidine hydrochloride], for which the ThS net change is 379.

In the case of `COc1c(N2C[C@@H]3CCCN[C@@H]3C2)c(F)cc2c(=O)c(C(=O)O)cn(C3CC3)c12` [Moxifloxacin], the ThS net change turned out to be 413.

In turn, `CC1CCc2c(N3CCC(O)CC3)c(F)cc3c(=O)c(C(=O)O)cn1c23` (centres unmarked) [Nadifloxacin] gave a ThS net change of 399.

Regarding `CC(C)(C)NCC(O)COc1cccc2c1CC(O)C(O)C2` (centres unmarked) [Nadolol], the ThS net change amounted to 411.

Take `O=C(O)c1cccnc1` [Niacin]: the ThS net change came to 391.

Molecule `NC(=O)c1cccnc1` [Nicotinamide] gave a ThS net change of 406.

Consider `Cc1c(NC(=O)c2cccnc2)c(=O)n(-c2ccccc2)n1C` [Nifenazone], for which the ThS net change came to 380.

`O=C(N/N=C/c1ccc([N+](=O)[O-])o1)c1ccc(O)cc1` [Nifuroxazide] displayed a ThS net change of 402.

Turning to `O=C1NCCN1c1ncc([N+](=O)[O-])s1` [Niridazole], the ThS net change turned out to be 399.

Staying with this experiment, now noted: 1280-compound library screen; […].
For `COc1ccc(OC)c(C(O)CNC(=O)CN)c1` (centres unmarked) [Midodrine hydrochloride], the ThS net change is 385.

For the molecule `Cc1ccsc1/C=C/C1=NCCCN1C` [Morantel tartrate], the ThS net change is given as 398.

Consider `Cl.O.O.O=C1CC[C@@]2(O)[C@H]3Cc4ccc(O)c5c4[C@@]2(CCN3CC2CC2)[C@H]1O5` [Naltrexone hydrochloride dihydrate], for which the ThS net change is listed as 408.

Regarding `CN(C)C(=O)Oc1cccc([N+](C)(C)C)c1` [Neostigmine bromide], the ThS net change came out at 409.

Still in this experiment, the particulars now being: flag: p-tau aggregation inhibitor, ThS net change more than 2 SD from mean.
In the case of `CN(C)c1ccc(O)c2c1C[C@H]1C[C@H]3[C@H](N(C)C)C(O)=C(C(N)=O)C(=O)[C@@]3(O)C(O)=C1C2=O` [Minocycline hydrochloride], the “PTAI>2SD” value is given as “*”.

Still in this experiment, the particulars now being: library screen, ThS fluorescence net change over 16 h with p-tau.
For `Cc1cc(-c2ccccc2)nnc1NCCN1CCOCC1` [Minaprine dihydrochloride], the ThS net change stood at 294.

In the case of `CN(C)c1ccc(O)c2c1C[C@H]1C[C@H]3[C@H](N(C)C)C(O)=C(C(N)=O)C(=O)[C@@]3(O)C(O)=C1C2=O` [Minocycline hydrochloride], the ThS net change is recorded as 121.

On to `CCOc1ccc2ccccc2c1C(=O)N[C@@H]1C(=O)N2[C@@H]1SC(C)(C)[C@@H]2C(=O)O` [Nafcillin sodium salt monohydrate], for which the ThS net change came to 317.

`CCN(CC)CCOC(=O)C(Cc1cccc2ccccc12)CC1CCCO1` (centres unmarked) [Nafronyl oxalate] showed a ThS net change of 324.

The molecule `CN1CCOC(c2ccccc2)c2ccccc2C1` (centres unmarked) [Nefopam hydrochloride] gave a ThS net change of 324.

As to `CO[C@]12C[C@@H](COC(=O)c3cncc(Br)c3)CN(C)[C@@H]1Cc1cn(C)c3cccc2c13` [Nicergoline], the ThS net change is 260.

Take `O=C(Nc1ccc([N+](=O)[O-])cc1Cl)c1cc(Cl)ccc1O` [Niclosamide]: the ThS net change is reported as 199.

Turning to `COC(=O)C1=C(C#N)NC(C)=C(C(=O)OC(C)C)C1c1cccc([N+](=O)[O-])c1` (centres unmarked) [Nilvadipine], the ThS net change amounted to 266.

In turn, `CS(=O)(=O)Nc1ccc([N+](=O)[O-])cc1Oc1ccccc1` [Nimesulide] had a ThS net change of 288.

The same experiment, now with this note: p-tau aggregation modulator screen of 1280-compound library; ThS fluorescence net change.
In turn, `OCCN1C[C@H](O)[C@@H](O)[C@H](O)[C@H]1CO` [Miglitol] showed a ThS net change of 372.

For `CC(=O)Oc1cc(C(C)C)c(OCCN(C)C)cc1C.Cl` [Moxisylyte hydrochoride], the ThS net change was 358.

In turn, `COc1ccc2cc(CCC(C)=O)ccc2c1` [Nabumetone] displayed a ThS net change of 357.

Regarding `NC(=O)c1ccc[n+]([C@@H]2O[C@H](COP(=O)([O-])OP(=O)(O)OC[C@H]3O[C@@H](n4cnc5c(N)ncnc54)[C@H](O)[C@@H]3O)[C@@H](O)[C@H]2O)c1` [Nadide], the ThS net change stood at 366.

As for `C=CCN1CC[C@]23c4c5ccc(O)c4O[C@H]2C(=O)CC[C@@]3(O)[C@H]1C5` [Naloxone hydrochloride], the ThS net change amounted to 349.

Molecule `c1ccc2c(CC3=NCCN3)cccc2c1` [Naphazoline hydrochloride] yielded a ThS net change of 361.

For `COc1ccc2cc([C@H](C)C(=O)O)ccc2c1` [Naproxen], the ThS net change was determined as 371.

`NC[C@@H]1O[C@H](O[C@H]2[C@@H](O)[C@H](O[C@@H]3[C@@H](O)[C@H](N)C[C@H](N)[C@H]3O[C@H]3O[C@H](CN)[C@@H](O)[C@H](O)[C@H]3N)O[C@@H]2CO)[C@H](N)[C@@H](O)[C@@H]1O.O=S(=O)(O)O` [Neomycin sulfate] yielded a ThS net change of 340.

For the molecule `COC(=O)C1=C(C)NC(C)=C(C(=O)OCCN(C)Cc2ccccc2)C1c1cccc([N+](=O)[O-])c1` (centres unmarked) [Nicardipine hydrochloride], the ThS net change came out at 330.

The molecule `O=C(NCCO[N+](=O)[O-])c1cccnc1` [Nicorandil] came in with a ThS net change of 376.

The molecule `O=C(O)c1cccnc1Nc1cccc(C(F)(F)F)c1` [Niflumic acid] showed a ThS net change of 340.

Molecule `CC1(C)NC(=O)N(c2ccc([N+](=O)[O-])c(C(F)(F)F)c2)C1=O` [Nilutamide] gave a ThS net change of 363.

`COCCOC(=O)C1=C(C)NC(C)=C(C(=O)OC(C)C)C1c1cccc([N+](=O)[O-])c1` (centres unmarked) [Nimodipine]: the ThS net change was found to be 343.

Still in this experiment, the particulars now being: p-tau aggregation modulator screen of 1280-compound library; […].
Turning to `CC[C@@]1([C@@H]2O[C@@H]([C@H]3O[C@@](O)(CO)[C@H](C)C[C@@H]3C)C[C@@H]2C)CC[C@H]([C@]2(C)CC[C@]3(C[C@H](O)[C@@H](C)[C@@H]([C@@H](C)[C@@H](OC)[C@H](C)C(=O)[O-])O3)O2)O1.[Na+]` [Monensin sodium salt], the ThS net change is recorded as 342.

For `Oc1ccc2c3c1O[C@H]1[C@@H](O)CC[C@@]4(O)[C@@H](C2)N(CC2CCC2)CC[C@]314` [Nalbuphine hydrochloride], the ThS net change amounted to 371.

Molecule `CCn1cc(C(=O)[O-])c(=O)c2ccc(C)nc21.[Na+]` [Nalidixic acid sodium salt] showed a ThS net change of 339.

Staying with this experiment, now noted: p-tau aggregation modulator screen of the compound library, ThS fluorescence net change.
On to `Cc1[nH]c(=O)c(C#N)cc1-c1ccncc1` [Milrinone], for which the ThS net change was found to be 423.

`CN1CCN2c3ncccc3Cc3ccccc3C2C1` (centres unmarked) [Mirtazapine] returned a ThS net change of 534.

Molecule `Clc1ccc(C(c2ccccc2Cl)C(Cl)Cl)cc1` (centres unmarked) [Mitotane] returned a ThS net change of 449.

`CCc1c(C)[nH]c2c1C(=O)C(CN1CCOCC1)CC2` (centres unmarked) [Molindone hydrochloride] returned a ThS net change of 458.

For `C[C@@H]1C[C@H]2[C@@H]3CCC4=CC(=O)C=C[C@]4(C)[C@@]3(Cl)[C@@H](O)C[C@]2(C)[C@@]1(OC(=O)c1ccco1)C(=O)CCl` [Mometasone furoate], the ThS net change was 484.

Consider `CC(C)(O)c1ccccc1CC[C@@H](SCC1(CC(=O)O)CC1)c1cccc(/C=C/c2ccc3ccc(Cl)cc3n2)c1` [Montelukast], for which the ThS net change turned out to be 592.

The molecule `CCOC(=O)Nc1ccc2c(c1)N(C(=O)CCN1CCOCC1)c1ccccc1S2` [Moricizine hydrochloride] gave a ThS net change of 473.

`CO[C@@]1(NC(=O)C(C(=O)O)c2ccc(O)cc2)C(=O)N2C(C(=O)O)=C(CSc3nnnn3C)CO[C@@H]21` (some centres unmarked) [Moxalactam disodium salt]: the ThS net change turned out to be 419.

Take `COc1nc(C)nc(Cl)c1N=C1NCCN1` [Moxonidine]: the ThS net change was determined as 433.

With `CNc1ncnc2c1ncn2[C@@H]1O[C@H](CO)[C@@H](O)[C@H]1O` [N6-methyladenosine], the ThS net change stood at 416.

As for `CC(=O)N[C@@H](CC(C)C)C(=O)O` [N-Acetyl-L-leucine], the ThS net change was found to be 417.

For the molecule `CN(C/C=C/c1ccccc1)Cc1cccc2ccccc12` [Naftifine hydrochloride], the ThS net change was determined as 539.

Molecule `COc1ccccc1N1CCN(CC(O)COc2cccc3ccccc23)CC1.Cl.Cl` (centres unmarked) [Naftopidil dihydrochloride] yielded a ThS net change of 453.

On to `C=C1CC[C@@]2(O)[C@H]3Cc4ccc(O)c5c4[C@@]2(CCN3CC2CC2)[C@H]1O5` [Nalmefene hydrochloride], for which the ThS net change came to 418.

`CC(C)[C@H]1CC[C@H](C(=O)N[C@H](Cc2ccccc2)C(=O)O)CC1` [Nateglinide] returned a ThS net change of 413.

For the molecule `CCc1nn(CCCN2CCN(c3cccc(Cl)c3)CC2)c(=O)n1CCOc1ccccc1` [Nefazodone HCl], the ThS net change is reported as 454.

Turning to `Cc1c(O)cccc1C(=O)N[C@@H](CSc1ccccc1)[C@H](O)CN1C[C@H]2CCCC[C@H]2C[C@H]1C(=O)NC(C)(C)C` [Nelfinavir mesylate], the ThS net change turned out to be 563.

On to `Cc1ccnc2c1NC(=O)c1cccnc1N2C1CC1` [Nevirapine], for which the ThS net change amounted to 427.

For the molecule `O=C(CCNNC(=O)c1ccncc1)NCc1ccccc1` [Nialamide], the ThS net change is recorded as 470.

For `Cn1c(NCCN(CCO)CCCc2ccc([N+](=O)[O-])cc2)cc(=O)n(C)c1=O` [Nifekalant], the ThS net change is 438.

As to `CC1CS(=O)(=O)CCN1/N=C/c1ccc([N+](=O)[O-])o1` (centres unmarked) [Nifurtimox], the ThS net change is reported as 588.
